Results on 51 compounds are retold here after PubChem BioAssay AID624456 (Sanford-Burnham Center for Chemical Genomics, 2012).

The test system of the series is compound stability in 1x PBS, percent remaining. The series can be described thus: percent compound remaining in PBS buffer – biochemical, 1x PBS, with and without 50% ACN, set 2, ADME assay (AID 624456).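 Note: percent left after two days of incubation at room temperature.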
The mark [1] stands for this setting: measured here: stability in PBS with 50% ACN.

SMILES strings stand for the structures.

Take `Cc1ccnc(NC(=O)CCCOc2cc(=O)n(C)c3ccccc23)c1`: the stability was 93.8%. The stability under setting [1] worked out at 100%.
The corresponding values for `CN(C)c1oc(-c2ccc(OCc3ccc(Cl)cc3)cc2)nc1C#N` are 9.08% and 100%.
The corresponding values for `Brc1cc2c(cc1C1Nc3ccccc3C3C=CCC31)OCO2` (configuration not stated) are 0.38% and 68.9%.
The corresponding values for `c1ccc(CC2CCN(c3ncnc4sccc34)CC2)cc1` are 6.42% and 93.2%.
As for `O=C(O)c1ccccc1OCc1ccccc1Br`, the stability stood at 98.8%. Besides, under setting [1], the stability turned out to be 100%.
Regarding `C=CCn1c(SCC(=O)c2ccc(O)c(O)c2)nnc1-c1ccccc1OC`, the stability turned out to be 82.6%. The compound also gave a stability under setting [1] of 100%.
The corresponding values for `COc1ccccc1N(/N=C1\Sc2ccccc2C1=O)C(C)=O` are 81.6% and 88.1%.
In turn, `O=C(COc1ccccc1Br)NCCc1nc2ccccc2[nH]1` displayed a stability of 92.1%. The same compound gave a stability under setting [1] of 100%.
As for `Cc1nc(SCc2nc3ccccc3[nH]2)c2oc3ccccc3c2n1`, the stability is 74.2%. The compound also had a stability under setting [1] of 84.7%.
The corresponding values for `Cc1cc(C(=O)CN2C(=O)CCC2=O)c(C)n1Cc1ccccc1` are 73% and 85.4%.
`COc1cccc(-c2nc(-c3ccc(NC(=O)Cc4ccccc4OC)cc3)no2)c1` had a stability of 81.5%. The compound also showed a stability under setting [1] of 90.4%.
The corresponding values for `CCc1oc2ccccc2c1C(=O)c1cc(Br)c(O)c(Br)c1` are 100% and 100%.
The corresponding values for `O=c1[nH]c2c(s1)C(c1cccnc1)C1C3CCC(C3)C1S2` (configuration not stated) are 55% and 66.5%.
The corresponding values for `CCCc1nc2c(=O)n(C)c(=O)nc-2n(C)n1` are 100% and 100%.
`Brc1ccc2c(c1)CN1CCCC1=N2` gave a stability of 92.9%. This compound had a stability under setting [1] of 93.4%.
The corresponding values for `O=C(c1ccccn1)N(Cc1cccs1)C1(C(=O)NC2CCCCC2)CCCCC1` are 93.9% and 97.5%.
The corresponding values for `COc1ccc(N(C(=O)CCl)C(C(=O)NCCc2ccccc2)c2cccs2)cc1Cl` (configuration not stated) are 71.8% and 100%.
The corresponding values for `Cc1cccc(-n2cnc3cc(C(=O)N4CCCCC4)ccc32)c1` are 43.5% and 80%.
With `CCCn1ncc(CN2CCCC(C(=O)c3cccc(OC(C)C)c3)C2)c1C` (configuration not stated), the stability is 100%. The same compound returned a stability under setting [1] of 100%.
With `Cc1ccc(N2CCN(S(=O)(=O)N3CCCCC3)CC2)c(C)c1`, the stability is 15.1%. The compound further displayed a stability under setting [1] of 96.7%.
Take `CC[C@H]1CN2CCc3cc(OC)c(OC)cc3[C@@H]2C[C@@H]1C[C@H]1NCCc2cc(OC)c(OC)cc21`: the stability worked out at 23.6%. The compound further showed a stability under setting [1] of 90%.
On to `CC1CCCN(C(C(=O)Nc2ccc3c(c2)OCCO3)c2ccccc2)C1` (configuration not stated), for which the stability was determined as 100%. This compound also displayed a stability under setting [1] of 100%.
Regarding `Cc1ccc(NS(=O)(=O)c2ccc3c(c2)CCC(=O)N3)cc1C`, the stability is 68.5%. For the same compound, the stability under setting [1] turned out to be 100%.
The corresponding values for `CCN1CCN(c2nc3ccccc3nc2C(C#N)C(=O)OC2CCCCC2)CC1` (configuration not stated) are 33.4% and 80.1%.
The compound `CCOC(=O)C(C)Oc1cccc2c(=O)n(CC(=O)Nc3ccc4c(c3)OCCO4)ccc12` (configuration not stated) had a stability of 56.1%. Further, the stability under setting [1] is 94.6%.
The corresponding values for `Cc1cc2c(s1)c1cnn(Cc3ccccc3F)c(=O)c1n2C` are 20.4% and 86.7%.
The corresponding values for `COc1ccc(OC)c(-c2nnc3n2N=C(c2ccc(OC)c(OC)c2)CS3)c1` are 89.6% and 99.6%.
The corresponding values for `COc1ccc(C2c3c(ncn(CCN4CCOCC4)c3=N)Oc3ccc4ccccc4c32)cc1OC` (configuration not stated) are 76.7% and 85.6%.
`Cc1ccc(S(=O)(=O)n2c(N)nc3ccccc32)cc1` returned a stability of 97.8%. Also, under setting [1], the stability amounted to 98.8%.
The corresponding values for `COC(=O)c1ccccc1NC(=O)c1ccc(F)cc1` are 11.2% and 93.4%.
The corresponding values for `Cc1ccc(C(=O)n2c3ccccc3c3ccccc32)cc1` are 77.2% and 74.6%.
The corresponding values for `COc1ccc(CNCc2cccc3ccccc23)cc1` are 50.6% and 100%.
`Cc1ccc(NC(=O)CCC(=O)N/N=C/c2ccc([N+](=O)[O-])o2)cc1C` gave a stability of 51.3%. The compound further displayed a stability under setting [1] of 65.6%.
The corresponding values for `CCCN(CCC)CCNC(=O)C1CCN(Cc2nc(-c3ccc(Cl)cc3)oc2C)CC1` are 99.4% and 100%.
In turn, `N#Cc1ccccc1CSc1nc2ncc(Br)cc2[nH]1` had a stability of 60.5%. Also, under setting [1], the stability was 55.9%.
The compound `CS(=O)(=O)c1ccc(C(=O)OCC(=O)NC23CC4CC(CC(C4)C2)C3)cc1[N+](=O)[O-]` yielded a stability of 12.8%. The same compound had a stability under setting [1] of 100%.
The corresponding values for `O=[N+]([O-])c1ccc(CN2CCOCCOCCN(Cc3ccc([N+](=O)[O-])cc3)CCOCC2)cc1` are 96.1% and 100%.
In turn, `COc1ccc(OC)c(S(=O)(=O)Nc2cnc3ccccc3c2)c1` yielded a stability of 89.6%. For the same compound, the stability under setting [1] is 93%.
The corresponding values for `Cc1ccc(C)c(OCCn2cc(C(=O)O)c3ccccc32)c1` are 90.3% and 100%.
The corresponding values for `O=C1CCCC2=C1C1(CCCC1)N=C(Nc1nc3ccccc3o1)N2` are 21.9% and 90.2%.
Turning to `CCCc1cc(C(=O)N(C2CCCCC2)C2CCCCC2)no1`, the stability stood at 6.53%. Moreover, the stability under setting [1] was determined as 76.7%.
The corresponding values for `CC(C)C(=O)NC(c1ccco1)c1ccc2cccnc2c1O` (configuration not stated) are 92.9% and 100%.
`N#C/C(=C\c1ccc([N+](=O)[O-])o1)c1nc2ccccc2[nH]1` yielded a stability of 52.4%. The stability under setting [1] was 100%.
In the case of `CN(C)c1nc(N)nc(CSc2nnnn2-c2cccc3ccccc23)n1`, the stability was 75.8%. Under setting [1], this compound came in with a stability of 94.6%.
In the case of `Cn1nnnc1Sc1ncnc2scc(-c3ccccc3)c12`, the stability amounted to 85%. Besides, the stability under setting [1] stood at 95.1%.
The corresponding values for `O=S(=O)(NC1CCCCC1N1CCOCC1)c1ccc(Cl)cc1` (configuration not stated) are 75% and 89.4%.
The corresponding values for `NC(=O)C1CCN(c2nc(-c3ccc(Br)cc3)cs2)CC1` are 70.8% and 100%.
For the compound `Cc1ccc(S(=O)(=O)NCc2ccc(C(=O)NCCN(Cc3ccccc3)C(C)C)cc2)cc1`, the stability was 84.8%. The compound further registered a stability under setting [1] of 100%.
The corresponding values for `O=C(CSc1cccc2cccnc12)N1CCCC1` are 100% and 100%.
The corresponding values for `Cc1ccc(S(=O)(=O)C(c2ccccc2)c2c(C)noc2C)cc1` (configuration not stated) are 83.8% and 99.3%.
The corresponding values for `CCc1nnc(NC(=O)c2ccc(NS(=O)(=O)c3ccccc3)cc2)s1` are 86% and 95.2%.
